Work on `O=c1cc(-c2ccccc2)oc2cc(O)cc(O)c12` yielded a solubility (mole fraction) (in ethanol, 293.15 K) of 0.00689, a solubility (mole fraction) (in ethanol, 298.15 K) of 0.00749 and a solubility (mole fraction) (in ethanol, 303.15 K) of 0.0078. It also gave a solubility (mole fraction) (in ethanol, 308.15 K) of 0.00928, a solubility (mole fraction) (in ethanol, 313.15 K) of 0.0108 and a solubility (mole fraction) (in ethanol, 318.15 K) of 0.0121. It also gave a solubility (mole fraction) (in ethanol, 323.15 K) of 0.0137, a solubility (mole fraction) (in water, 293.15 K) of 1.26e-05 and a solubility (mole fraction) (in water, 298.15 K) of 1.86e-05. It also gave a solubility (mole fraction) (in water, 303.15 K) of 2.38e-05, a solubility (mole fraction) (in water, 308.15 K) of 3.53e-05 and a solubility (mole fraction) (in water, 313.15 K) of 4.61e-05. It also gave a solubility (mole fraction) (in water, 318.15 K) of 6.5e-05 and a solubility (mole fraction) (in water, 323.15 K) of 0.0001.

— BigSolDB 2.1
